Reference: article PMC11780439 (ACS Omega, 2025)
Like-named read-outs stand apart in the source and are kept apart here.

Key:
prion protein (PrP) [1] = molecular target: T1, prion protein (PrP) (Mesocricetus auratus, UniProt P04273); test: biochemical
T1 construct: gene PRNP

prion protein (PrP) [2] = molecular target: T1, prion protein (PrP); test: biochemical; remark: listed apart in the source

T1 sequence (P04273 90-231 limits assumed): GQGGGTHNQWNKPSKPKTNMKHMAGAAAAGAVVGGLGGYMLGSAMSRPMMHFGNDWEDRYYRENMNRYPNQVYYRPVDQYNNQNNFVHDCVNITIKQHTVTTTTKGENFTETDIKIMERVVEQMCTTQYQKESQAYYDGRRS

Question: `O=C(/C=C/c1ccc(O)c(O)c1)O[C@@H]1C[C@](O)(C(=O)O)C[C@@H](O)[C@H]1O` [CA, chlorogenic acid] was tested. Which IC50 (prion protein (PrP) [1]) did it give?
Answer: 64.4 ± 12.1 µM

Question: How did the IC50 (prion protein (PrP) [2]) turn out when `O=C(O[C@@H]1Cc2c(O)cc(O)cc2O[C@@H]1c1cc(O)c(O)c(O)c1)c1cc(O)c(O)c(O)c1` [EGCG, epigallocatechin gallate] was run?
Answer: 2.84 ± 0.97 µM

Question: For `O=C(/C=C/c1ccc(O)c(O)c1)O[C@@H]1C[C@@](O)(C(=O)O)C[C@@H](O)[C@@H]1O` [NCA, neochlorogenic acid], which IC50 (prion protein (PrP) [1]) is on record?
Answer: 35.3 ± 7.09 µM
